Data from patent publication US20240239752A1, “BICYCLIC HETEROAROMATIC INHIBITORS OF KLK5” (BioCryst Pharmaceuticals, Inc., priority 2021, published 2024).

target: T1, recombinant human KLK5 (Homo sapiens, UniProt Q9Y337); assay: Kallikrein (KLK) 5 enzymatic assay (Boc-VPR-AMC fluorogenic substrate); assay type: biochemical; conditions: recombinant human KLK5 0.1 μg/well, Boc-VPR-AMC 100 μM, pH 7.5, room temperature, 1% DMSO; tested a minimum of three times
T1 construct: purchased Novoprotein or R&D Systems C415 or 1108-SE
T1 sequence (Q9Y337 23-293): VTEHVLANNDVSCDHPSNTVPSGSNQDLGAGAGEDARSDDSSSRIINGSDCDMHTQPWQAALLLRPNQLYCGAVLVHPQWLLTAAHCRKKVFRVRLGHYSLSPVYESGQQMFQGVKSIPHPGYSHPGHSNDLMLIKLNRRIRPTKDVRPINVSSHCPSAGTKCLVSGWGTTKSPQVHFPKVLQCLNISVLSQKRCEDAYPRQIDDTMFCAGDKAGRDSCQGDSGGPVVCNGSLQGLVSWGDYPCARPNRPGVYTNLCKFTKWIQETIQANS
Summary of the method: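 Recombinant human KLK5 (0.1 μg/well) was preincubated with compound at room temperature in 0.1 M NaH2PO4, pH 7.5, 1% DMSO, then started with 100 μM Boc-VPR-AMC. The rate was followed at 380/460 nm, and IC50 came from percent inhibition relative to enzyme alone, with at least three runs.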

SMILES | IC50
Nc1nccc2c(-c3ccc4c(c3)N(Cc3ccccc3CC(=O)O)CC4)cccc12 [Compound 285d, 2-(2-((6-(1-aminoisoquinolin-5-yl)indolin-1-yl)methyl)phenyl)acetic acid] | 1000 to 10000 nM
NC(=O)c1cc(-c2cccc3c(N)nccc23)cc2c(COc3ccccc3CC(=O)O)nn(C3CCCCO3)c12 (stereo not drawn) [Compound 286a, 2-(2-((5-(1-aminoisoquinolin-5-yl)-7-carbamoyl-1-(tetrahydro-2H-pyran-2-yl)-1H-indazol-3-yl)methoxy)phenyl)acetic acid] | 1000 to 10000 nM
NCc1cc(-c2cccc3c(N)nccc23)cc2c(COc3ccccc3CC(=O)O)nn(C3CCCCO3)c12 (stereo not drawn) [Compound 287a, 2-(2-((5-(1-aminoisoquinolin-5-yl)-7-(aminomethyl)-1-(tetrahydro-2H-pyran-2-yl)-1H-indazol-3-yl)methoxy)phenyl)acetic acid] | 1000 to 10000 nM
N#Cc1cccc(OCc2nn(C3CCOC3)c3ccc(-c4ccc5ccnc(N)c5c4)cc23)c1CC(=O)O (stereo not drawn) [Compound 292d, 2-(2-((5-(1-aminoisoquinolin-7-yl)-1-(tetrahydrofuran-3-yl)-1H-indazol-3-yl)methoxy)-6-cyanophenyl)acetic acid] | 1000 to 10000 nM
Nc1nccc2ccc(-c3ccc4c(c3)c(COc3ccccc3CC(=O)O)nn4CC3CNC3)cc12 [Compound 295c, 2-(2-((5-(1-aminoisoquinolin-7-yl)-1-(azetidin-3-ylmethyl)-1H-indazol-3-yl)methoxy)phenyl)acetic acid] | < 1000 nM
Nc1nccc2c(-c3ccc4c(c3)c(COc3ccccc3CC(=O)O)nn4CC3CNC3)cccc12 [Compound 296b, 2-(2-((5-(1-aminoisoquinolin-5-yl)-1-(azetidin-3-ylmethyl)-1H-indazol-3-yl)methoxy)phenyl)acetic acid] | < 1000 nM
Nc1nccc2ccc(-c3ccc4c(c3)c(COc3ccccc3CC(=O)O)nn4C3CCN(CC(=O)O)C3)cc12 (stereo not drawn) [Compound 297d, 2-(2-((5-(1-aminoisoquinolin-7-yl)-1-(1-(carboxymethyl)pyrrolidin-3-yl)-1H-indazol-3-yl)methoxy)phenyl)acetic acid] | < 1000 nM
Nc1nccc2c(-c3ccc4c(c3)c(COc3ccccc3CC(=O)O)nn4C3CCN(CCO)C3)cccc12 (stereo not drawn) [Compound 298c, 2-(2-((5-(1-aminoisoquinolin-5-yl)-1-(1-(2-hydroxyethyl)pyrrolidin-3-yl)-1H-indazol-3-yl)methoxy)phenyl)acetic acid] | < 1000 nM
Nc1nccc2ccc(-c3ccc4c(c3)c(COc3ccccc3CC(=O)O)nn4C3CCN(CCO)C3)cc12 (stereo not drawn) [Compound 299b, 2-(2-((5-(1-aminoisoquinolin-7-yl)-1-(1-(2-hydroxyethyl)pyrrolidin-3-yl)-1H-indazol-3-yl)methoxy)phenyl)acetic acid] | < 1000 nM
COc1c(CN)cccc1-c1cc2c(COc3ccccc3CC(=O)O)cccc2o1 [Compound 300d, 2-(2-((2-(3-(aminomethyl)-2-methoxyphenyl)benzofuran-4-yl)methoxy)phenyl)acetic acid] | > 10000 nM
Nc1nccc2c(-c3ccc4c(c3)c(C#Cc3ccccc3CC(=O)O)cn4C3CCOC3)cccc12 (stereo not drawn) [Compound 301f, 2-(2-((5-(1-aminoisoquinolin-5-yl)-1-(tetrahydrofuran-3-yl)-1H-indol-3-yl)ethynyl)phenyl)acetic acid] | < 1000 nM
Nc1nccc2c(-c3ccc4c(c3)c(CCc3ccccc3CC(=O)O)cn4C3CCOC3)cccc12 (stereo not drawn) [Compound 302b, 2-(2-(2-(5-(1-aminoisoquinolin-5-yl)-1-(tetrahydrofuran-3-yl)-1H-indol-3-yl)ethyl)phenyl)acetic acid] | < 1000 nM
COCCN1CCC(n2nc(COc3ccccc3CC(=O)O)c3cc(-c4cccc5c(N)nccc45)ccc32)C1 (stereo not drawn) [Compound 303c, 2-(2-((5-(1-aminoisoquinolin-5-yl)-1-(1-(2-methoxyethyl)pyrrolidin-3-yl)-1H-indazol-3-yl)methoxy)phenyl)acetic acid] | < 1000 nM
COCCN1CCC(n2nc(COc3ccccc3CC(=O)O)c3cc(-c4ccc5ccnc(N)c5c4)ccc32)C1 (stereo not drawn) [Compound 304b, 2-(2-((5-(1-aminoisoquinolin-7-yl)-1-(1-(2-methoxyethyl)pyrrolidin-3-yl)-1H-indazol-3-yl)methoxy)phenyl)acetic acid] | < 1000 nM
Nc1nccc2c(-c3ccc4c(c3)c(COc3ccccc3CC(=O)O)nn4C3CCN(CC(=O)O)C3)cccc12 (stereo not drawn) [Compound 305b, 2-(2-((5-(1-aminoisoquinolin-5-yl)-1-(1-(carboxymethyl)pyrrolidin-3-yl)-1H-indazol-3-yl)methoxy)phenyl)acetic acid] | < 1000 nM
COCCN1CC(Cn2nc(COc3ccccc3CC(=O)O)c3cc(-c4ccc5ccnc(N)c5c4)ccc32)C1 [Compound 306c, 2-(2-((5-(1-aminoisoquinolin-7-yl)-1-((1-(2-methoxyethyl)azetidin-3-yl)methyl)-1H-indazol-3-yl)methoxy)phenyl)acetic acid] | < 1000 nM
CC(C)CCN1CC(Cn2nc(COc3ccccc3CC(=O)O)c3cc(-c4ccc5ccnc(N)c5c4)ccc32)C1 [Compound 307c, 2-(2-((5-(1-aminoisoquinolin-7-yl)-1-((1-isopentylazetidin-3-yl)methyl)-1H-indazol-3-yl)methoxy)phenyl)acetic acid] | < 1000 nM
CC(C)CCN1CC(Cn2nc(COc3ccccc3CC(=O)O)c3cc(-c4cccc5c(N)nccc45)ccc32)C1 [Compound 308b, 2-(2-((5-(1-aminoisoquinolin-5-yl)-1-((1-isopentylazetidin-3-yl)methyl)-1H-indazol-3-yl)methoxy)phenyl)acetic acid] | < 1000 nM
CC(C)CCN1CCC(n2nc(COc3ccccc3CC(=O)O)c3cc(-c4ccc5ccnc(N)c5c4)ccc32)C1 (stereo not drawn) [Compound 309c, 2-(2-((5-(1-aminoisoquinolin-7-yl)-1-(1-isopentylpyrrolidin-3-yl)-1H-indazol-3-yl)methoxy)phenyl)acetic acid] | < 1000 nM
CCOC(=O)N1CCC(n2nc(COc3ccccc3CC(=O)O)c3cc(-c4ccc5ccnc(N)c5c4)ccc32)C1 (stereo not drawn) [Compound 310c, 2-(2-((5-(1-aminoisoquinolin-7-yl)-1-(1-(ethoxycarbonyl)pyrrolidin-3-yl)-1H-indazol-3-yl)methoxy)phenyl)acetic acid] | < 1000 nM

Further lines, results first:

IC50 | SMILES
< 1000 nM | Nc1nccc2ccc(-c3ccc4c(c3)c(COc3ccccc3CC(=O)O)nn4C3CCOCC3)cc12 [Compound 281g, 2-(2-((5-(1-aminoisoquinolin-7-yl)-1-(tetrahydro-2H-pyran-4-yl)-1H-indazol-3-yl)methoxy)phenyl)acetic acid]
< 1000 nM | Nc1nccc2c(-c3ccc4c(c3)c(COc3ccccc3CC(=O)O)nn4C3CCOCC3)cccc12 [Compound 282b, 2-(2-((5-(1-aminoisoquinolin-5-yl)-1-(tetrahydro-2H-pyran-4-yl)-1H-indazol-3-yl)methoxy)phenyl)acetic acid]
< 1000 nM | Nc1nccc2ccc(-c3ccc4c(c3)c(COc3ccccc3CC(=O)O)nn4C3CCCOC3)cc12 (stereo not drawn) [Compound 283g, 2-(2-((5-(1-aminoisoquinolin-7-yl)-1-(tetrahydro-2H-pyran-3-yl)-1H-indazol-3-yl)methoxy)phenyl)acetic acid]
< 1000 nM | Nc1nccc2c(-c3ccc4c(c3)c(COc3ccccc3CC(=O)O)nn4C3CCCOC3)cccc12 (stereo not drawn) [Compound 284b, 2-(2-((5-(1-aminoisoquinolin-5-yl)-1-(tetrahydro-2H-pyran-3-yl)-1H-indazol-3-yl)methoxy)phenyl)acetic acid]
< 1000 nM | Nc1nccc2ccc(-c3ccc4c(c3)c(COc3cccc(OC(F)(F)F)c3CC(=O)O)nn4C3CCOC3)cc12 (stereo not drawn) [Compound 288d, 2-(2-((5-(1-aminoisoquinolin-7-yl)-1-(tetrahydrofuran-3-yl)-1H-indazol-3-yl)methoxy)-6-(trifluoromethoxy)phenyl)acetic acid]
< 1000 nM | Nc1nccc2c(-c3ccc4c(c3)c(COc3cccc(OC(F)(F)F)c3CC(=O)O)nn4C3CCOC3)cccc12 (stereo not drawn) [Compound 289b, 2-(2-((5-(1-aminoisoquinolin-5-yl)-1-(tetrahydrofuran-3-yl)-1H-indazol-3-yl)methoxy)-6-(trifluoromethoxy)phenyl)acetic acid]
< 1000 nM | Nc1nccc2ccc(-c3ccc4c(c3)c(COc3cccc(C5CC5)c3CC(=O)O)nn4C3CCOC3)cc12 (stereo not drawn) [Compound 290d, 2-(2-((5-(1-aminoisoquinolin-7-yl)-1-(tetrahydrofuran-3-yl)-1H-indazol-3-yl)methoxy)-6-cyclopropylphenyl)acetic acid]
< 1000 nM | Nc1nccc2c(-c3ccc4c(c3)c(COc3cccc(C5CC5)c3CC(=O)O)nn4C3CCOC3)cccc12 (stereo not drawn) [Compound 291b, 2-(2-((5-(1-aminoisoquinolin-5-yl)-1-(tetrahydrofuran-3-yl)-1H-indazol-3-yl)methoxy)-6-cyclopropylphenyl)acetic acid]
< 1000 nM | N#Cc1cccc(OCc2nn(C3CCOC3)c3ccc(-c4cccc5c(N)nccc45)cc23)c1CC(=O)O (stereo not drawn) [Compound 293b, 2-(2-((5-(1-aminoisoquinolin-5-yl)-1-(tetrahydrofuran-3-yl)-1H-indazol-3-yl)methoxy)-6-cyanophenyl)acetic acid]
< 1000 nM | Cc1cccc(OCc2cn(C3CCOC3)c3ncc(-c4cccc5c(N)nccc45)cc23)c1CC(=O)O (stereo not drawn) [Compound 294c, 2-(2-((5-(1-aminoisoquinolin-5-yl)-1-(tetrahydrofuran-3-yl)-1H-pyrrolo[2,3-b]pyridin-3-yl)methoxy)-6-methylphenyl)acetic acid]
